In patent publication EP0116439A2, “Fatty acid containing hair tonic composition” (priority 1983, dated 1984):

Columns and labels:
[1] = molecular target: testosterone 5α-reductase; assay: testosterone 5α-reductase inhibitory activity (conversion of labelled testosterone to 5α-dihydrotestosterone); assay type: biochemical, rats; conditions: microsome from rat prostate gland cells, 25°C, 60 minutes, pH 6.6
Method: The Sa-reductase inhibitory activity was determined as follows.
Prostate gland cells of rats were crushed and a specimen of testosterone 5α-reductase was then prepared by separating microsome from the crushed liquid mixture. The conversion of the testosterone to 5α-dihydrotestosterone by the use of the above-prepared enzyme specimen was monitored by radioisotopically labelled testosterone. The reaction mixture was extracted with ethyl acetate and the extract was developed twice by silica gel thin layer chromatography (solvent system, dichloromethane: cyclohexane:acetone = 15:4:1). The amount of 5α-dihydrotestosterone were determined from the intensities of the radioactivity.
A 30 µl amount of a 0.05 M phosphate buffer (pH = 6.6), 10 µl of an enzyme specimen, 8.5 pmol of labelled testosterone, 50 nmol of a reduced form of NADP (nicotinamide adenine dinucleotide phosphate), and 10 µl of a test sample were mixed (final volume = 50 µl). The mixture was included at a temperature of 25°C for 60 minutes.
The reaction was stopped by the addition of 100 ul of ethyl acetate, and the reaction mixture was extracted by vigorous shaking. The extract was developed in the same manner as mentioned above and the intensity of the radioisotope was measured by using a scintillation counter.
The above-mentioned determination was applied to the samples having various concentrations. The 5a--reductase inhibitory activity was obtained as a inhibitory rate (%) or a 50% inhibitory concentration (^IC50).

male rabbits = assay: fur growth on shorn back of rabbits; assay type: in vivo; parameters: Difference b, Average: unit not given here; conditions: for Grown fur length Test side a', Average: 0.2% fatty acid solution in 80% aqueous ethanol; for Difference b, Average: test side minus control side, 0.2% fatty acid solution
Method: Ten week old male rabbits were shorn on the back. A 0.2% fatty acid solution in 80% aqueous ethanol solution was applied, twice a day, to a half-side of the shorn portion of each rabbit for one week. As a control, a 80% aqueous ethanol solution was also applied, twice a day, to the other half-side of the shorn portion of each rabbit for one week (two week for linoleic acid). The length of the grown fur was measured.

| SMILES | IC50 [1] [µM] | Grown fur length Test side a', Average (male rabbits; twice a day for one week) | Difference b, Average (male rabbits; twice a day for one week) | Grown fur length Test side a', Average (male rabbits; twice a day, two week) | Difference b, Average (male rabbits; twice a day, two week) |
| --- | --- | --- | --- | --- | --- |
| CCCCC/C=C\C/C=C\C/C=C\C/C=C\CCCC(=O)O [Arachidonic acid, arachidonic acid] | 150 | 7.561^*2 | 0.78 |  |  |
| CCCCCCCCCCCC(=O)O [Lauric acid, lauric acid] | 600 | 5.667^*2 | 0.776 |  |  |
| CCCCC/C=C\C/C=C\CCCCCCCC(=O)O [Linoleic acid, linoleic acid] | 180 |  |  | 9.98^*2 | 0.43 |
| CC/C=C\C/C=C\C/C=C\CCCCCCCC(=O)O [Linolenic acid, linolenic acid] |  | 5.46^*2 | 0.45 |  |  |
| CCCCCCCCCCCCCC(=O)O [Myristic acid, myristic acid] | 1800 | 6.583^*2 | 0.661 |  |  |
| CCCCCCCC/C=C\CCCCCCCC(=O)O [Oleic Acid, oleic acid] | 320 | 6.102^*2 | 0.626 |  |  |
| CCCCCCCCCCCCCCCC(=O)O [Palmitic acid, palmitic acid] | 300 | 6.056^*2 | 0.958 |  |  |
| CCCCCC/C=C\CCCCCCCC(=O)O [Palmitoleic acid, palmitoleic acid] | 180 | 8.051^*2 | 0.862 |  |  |
| CCC=CC=CC=CC=CCCCCCCCC(=O)O [Parinaric acid, parinaric acid] | 1100 | 6.83^*2 | 0.60 |  |  |
| CCCCCCCCCCC/C=C\CCCCC(=O)O [Petroselinic acid, petroselinic acid] | 280 | 6.66^*2 | 0.50 |  |  |
| CCCCCCCCCC(=O)O [n-Capric acid, n-capric acid] | 500 | 7.542^*2 | 0.557 |  |  |
| CCCCCCCC(=O)O [n-Caprylic acid, n-caprylic acid] | 1700 | 5.38^*2 | 0.32 |  |  |
